These results are taken from article PMC10815436, “Toward New AQP4 Inhibitors: ORI-TRN-002” (International Journal of Molecular Sciences, 2024).

By chromatographic logD is commonly meant a lipophilicity value derived from retention on a column. High values mean a more lipophilic compound, low ones a more hydrophilic compound. In general, IC50 refers to the concentration that inhibits the measured activity by half. Read a low IC50 as greater potency.

For one series, the system named is AQP4. Further details: method as in PMID 32506554, PMID 30934923. As to conditions: cited from earlier work.
Series [1] has as its system cerebral edema. As to conditions: cited from earlier work.
The test system of series [2] is cerebral edema. Further details: method as in doi:10.1097/01.ccm.0000473851.20338.3b, PMID 29635589. As to conditions: various traumatic brain injury models; cited from earlier work.
A further series deals with rat serum albumin (Rattus norvegicus, UniProt P02770). Put plainly: Rat serum albumin affinity (BRAINstorm affinity chromatography). The class given is binding. The source says:
(§1) To evaluate the potential drug-like properties of the electronic homologue ORI-TRN-002, we measured the compound’s properties in the Origenis BRAINstorm™ platform. This platform uses affinity chromatography under standard conditions and standard calibrants to measure compound properties with high accuracy and reproducibility. […] It supersedes the solubility and free fraction limitations of the Aeromics/Simcere drug AER-270 [21] (Figure 2). ORI-TRN-002 requires no prodrug approach and serves as an ideal starting point for further optimization.
(§2) The chemical structures of the three AQP4 inhibitors studied and their measured physico-chemical properties (logD at pH 7.4, log10 of molar human serum albumin affinity constant, percent human plasma protein binding, log10 of human alpha acid glycoprotein affinity constant, unbound fraction in liver, and unbound fraction in hepatocytes). TEXT PRINTED IN THE PICTURE: TGN-020: logD: 0.04; logKaHSA: 3.51; hPPB%: 68.20; logKaRSA: 2.72; logKaAGP: 1.18; fu, liver: 1.00; fu, hep: 0.92 | AER-270: logD: 3.31; logKaHSA: 5.46; hPPB%: 99.50; logKaRSA: 5.26; logKaAGP: 6.94; fu, liver: <0.01; fu, hep: <0.01 | ORI-TRN-002: logD: -0.07; logKaHSA: 2.99; hPPB%: 39.20; logKaRSA: 2.89; logKaAGP: 1.88; fu, liver: 1.00; fu, hep: 0.95

The nature of series [3]: Unbound fraction in hepatocytes (BRAINstorm). In kind it is in vitro ADME.
Source text: as §1, §2

The nature of series [4]: Unbound fraction in liver (BRAINstorm). In kind it is in vitro ADME.
Source text: as §1, §2

Series [5] in a line: Octanol-water distribution coefficient at pH 7.4 (Origenis BRAINstorm platform, affinity chromatography). In kind it is physicochemical.
Source text: as §1, §2

Series [6] in a line: Percentage of binding to human plasma proteins (BRAINstorm). The class given is in vitro ADME.
Source text: as §1, §2

A further series deals with human serum albumin (Homo sapiens, UniProt P02768). Put plainly: Human serum albumin affinity (BRAINstorm affinity chromatography). In kind it is binding.
Source text: as §1, §2

Another series relates to AQP4.M23. Further details: method as in PMID 17178220. As to conditions: oocytes; cited from earlier work.
Another series addresses rat AQP4 (Rattus norvegicus, UniProt P47863). Put plainly: Osmotic water permeability of rat AQP4-expressing Xenopus laevis oocytes (high-resolution volume recording, hyposmotic challenge). As to conditions: IC50 for rAQP4 (AQP4-mediated water permeability), rat AQP4 in Xenopus laevis oocytes, different concentrations, n = 6, mean ± SEM.
In a further series the test system is AQP4-expressing oocytes. Put plainly: Membrane potential of treated AQP4-expressing oocytes (toxicity check). The class given is cell-based, Xenopus laevis.
Another series relates to human AQP4. As to conditions: cited from earlier work.
Setting [7] is: read-out: logKaRSA (rat serum albumin affinity) (converted).
[8] abbreviates: read-out: fu, hep (unbound fraction in hepatocytes).
[9] abbreviates: liver, read-out: fu, liver (unbound fraction in liver).
Where [10] appears, read: human plasma proteins, read-out: hPPB% (percent human plasma protein binding) (converted).
Where [11] appears, read: read-out: logKaHSA (log10 of molar human serum albumin affinity constant) (converted).

Several values for one entry are separate records, joined by “and”; a condition that tells them apart may be missing. Equal entries are not always repeated. Where two headings read alike, the source gives them in different places. Where only a bound is given, the exact number is not on record here.

human serum albumin, sequence (P02768 25-609): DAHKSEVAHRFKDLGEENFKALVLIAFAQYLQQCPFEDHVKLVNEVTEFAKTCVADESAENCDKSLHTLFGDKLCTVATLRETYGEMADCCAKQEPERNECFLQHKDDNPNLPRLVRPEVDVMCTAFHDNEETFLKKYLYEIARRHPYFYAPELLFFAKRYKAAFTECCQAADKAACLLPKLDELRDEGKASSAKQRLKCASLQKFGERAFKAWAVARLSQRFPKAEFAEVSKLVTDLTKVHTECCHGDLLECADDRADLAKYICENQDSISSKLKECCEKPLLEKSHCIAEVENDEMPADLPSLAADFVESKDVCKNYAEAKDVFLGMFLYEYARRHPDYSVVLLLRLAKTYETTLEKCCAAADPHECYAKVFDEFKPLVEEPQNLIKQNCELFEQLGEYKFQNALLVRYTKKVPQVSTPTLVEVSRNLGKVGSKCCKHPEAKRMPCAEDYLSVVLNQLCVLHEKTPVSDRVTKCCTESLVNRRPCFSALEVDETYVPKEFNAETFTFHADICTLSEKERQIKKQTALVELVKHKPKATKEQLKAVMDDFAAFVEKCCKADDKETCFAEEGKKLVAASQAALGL
rat serum albumin, sequence (P02770 25-608): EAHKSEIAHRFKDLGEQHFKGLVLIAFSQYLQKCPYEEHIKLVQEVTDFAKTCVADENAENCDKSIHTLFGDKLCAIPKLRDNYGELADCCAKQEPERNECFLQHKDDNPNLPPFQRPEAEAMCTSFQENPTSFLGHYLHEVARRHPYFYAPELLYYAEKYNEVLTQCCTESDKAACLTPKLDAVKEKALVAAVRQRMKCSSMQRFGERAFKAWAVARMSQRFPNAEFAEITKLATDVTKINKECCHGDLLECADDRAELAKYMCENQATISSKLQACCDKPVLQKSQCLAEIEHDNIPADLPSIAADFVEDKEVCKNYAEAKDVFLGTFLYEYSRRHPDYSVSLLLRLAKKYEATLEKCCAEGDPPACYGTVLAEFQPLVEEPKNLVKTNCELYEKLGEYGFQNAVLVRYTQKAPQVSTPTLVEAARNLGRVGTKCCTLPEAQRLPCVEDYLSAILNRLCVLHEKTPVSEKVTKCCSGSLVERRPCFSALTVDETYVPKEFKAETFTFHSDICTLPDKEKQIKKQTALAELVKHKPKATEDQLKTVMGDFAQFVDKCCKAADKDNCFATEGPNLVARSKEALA
rat AQP4, sequence (P47863 23-323): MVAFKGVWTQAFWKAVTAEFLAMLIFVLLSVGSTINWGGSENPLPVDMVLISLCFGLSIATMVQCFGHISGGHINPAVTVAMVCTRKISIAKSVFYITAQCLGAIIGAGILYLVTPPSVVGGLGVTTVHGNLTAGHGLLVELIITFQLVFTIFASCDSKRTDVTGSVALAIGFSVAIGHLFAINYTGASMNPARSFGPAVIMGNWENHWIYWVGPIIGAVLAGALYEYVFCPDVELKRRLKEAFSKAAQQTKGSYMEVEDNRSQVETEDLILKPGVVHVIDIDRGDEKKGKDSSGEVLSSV
Source text for AQP4-expressing oocytes: Following the introduction of an abrupt hyposmotic challenge (−100 mOsm), we determined the osmotic water permeability of the oocytes during the continuous recording of the oocyte volume with a high-resolution volume recording system. This experimental setup allows for the osmotic gradient to be introduced at a faster rate than the rate of cell volume change and sufficiently fast data acquisition to obtain several data points at the initial linear part of the cell volume change, which is required to obtain the osmotic water permeability of an AQP-expressing oocyte. […] The oocytes were exposed to the novel drugs (or control solution) for 60 min. prior to the determination of water permeability. The established AQP4 blockers, TGN-020 and AER-270, served as positive controls.
Source text for rat AQP4: To resolve ORI-TRN-002’s inhibitory effect on AQP4, rat AQP4 (rAQP) was heterologously expressed in Xenopus laevis oocytes, and the AQP4-mediated water permeability was quantified. Following the introduction of an abrupt hyposmotic challenge (−100 mOsm), we determined the osmotic water permeability of the oocytes during the continuous recording of the oocyte volume with a high-resolution volume recording system. This experimental setup allows for the osmotic gradient to be introduced at a faster rate than the rate of cell volume change and sufficiently fast data acquisition to obtain several data points at the initial linear part of the cell volume change, which is required to obtain the osmotic water permeability of an AQP-expressing oocyte. The native oocyte membrane has a low inherent water permeability, thus the uninjected oocytes display a negligible background (see Figure 3A for summarized data on osmotic water permeabilities; compare 0.21 ± 0.13 × 10^−3 cm s^−1, n = 9, for uninjected oocytes to 3.80 ± 0.33 × 10^−3 cm s^−1, n = 11, for AQP4-expressing oocytes; representative volume traces shown as insets)). The oocytes were exposed to the novel drugs (or control solution) for 60 min. prior to the determination of water permeability. The established AQP4 blockers, TGN-020 and AER-270, served as positive controls. […]

Regarding `CC(=O)Nc1nnc(S(N)(=O)=O)s1` [acetazolamide], the “block of AQP4-mediated water permeability” value (from here on “block”) in the series on AQP4 is recorded as “not be effective blockers”.

As for `CCCCNc1cc(C(=O)O)cc(S(N)(=O)=O)c1Oc1ccccc1` [bumetanide], the “block” value with AQP4 is “not be effective blockers”.

For `O=C(Nc1cc(C(F)(F)F)cc(C(F)(F)F)c1)c1cc(Cl)ccc1OP(=O)(O)O` [AER-271, 2-([3,5-Bis(trifluoromethyl)phenyl]carbamoyl)-4-chlorophenyl dihydrogen phosphate], in the series with cerebral edema [1] (rodent model of transient MCAO), the AQP4-mediated cerebral edema result was “selectively and effectively reduced”; the neurological outcome is on record as “improved”. Further, in the series on cerebral edema [1] (water intoxication and ischemic stroke modeled by MCAO), the “swelling in two models of CNS injury complicated by cerebral edema” value is listed as “reduce swelling”. In addition, the “reduction of cerebral edema” value in the series on cerebral edema [2] is “ineffective”.

With `CCCCNc1cc(C(=O)Nc2ccncc2)cc(S(N)(=O)=O)c1Oc1ccccc1` [AqB013], in the series with AQP4, the “block” value is on record as “not be effective blockers”.

For the compound `O=C(Nc1nncs1)c1cccnc1` [TGN-020, 2-(nicotinamide)-1,3,4-thiadiazole], the Kd was 1910 µM at rat serum albumin (setting [7]) and 309 µM on human serum albumin (setting [11]). The fraction unbound in series [3] (setting [8]) is 0.92; in series [4] (setting [9]) it was 1; in series [6] (setting [10]) it was 0.318. Besides, the chromatographic logD in series [5] (octanol/water) is 0.04.

As for `CCOc1ccc2nc(S(N)(=O)=O)sc2c1` [Ethoxyzolamide], the “inhibition of AQP4.M23” value in the series with AQP4.M23 is listed as “inhibit”.

Take `O=c1[nH]c(-c2cccnc2)nc2[nH]ncc12` [ORI-TRN-002, 6-(pyridin-3-yl)-1H-pyrazolo[3,4-d]pyrimidin-4(5H)-one]: the Kd is 1290 µM at rat serum albumin (setting [7]) and 1020 µM on human serum albumin (setting [11]). Moreover, the IC50 against rat AQP4 was ~3 µM and 2.9 µM. For the same compound, the fraction unbound in series [3] (setting [8]) was 0.95; in [4] (setting [9]) it was 1; in series [6] (setting [10]) it was 0.608. Besides, the chromatographic logD in series [5] (octanol/water) was -0.07. Also, the “membrane potential of treated oocytes” value in the series with AQP4-expressing oocytes (20 μM acute application, 10 min, non-treated -25.6 ± 0.50 mV, n = 9) was −26.9 ± 0.61 mV; with AQP4-expressing oocytes (20 µM, 60 min, non-treated −26.2 ± 0.62 mV, n = 12) it was −24.4 ± 0.74 mV.

As to `CC[N+](CC)(CC)CC` [tetraethylammonium (TEA), tetraethylammonium], the “block” value in the series with AQP4 is “not be effective blockers”.

With `O=C(Nc1cc(C(F)(F)F)cc(C(F)(F)F)c1)c1cc(Cl)ccc1O` [AER-270, N-[3,5-bis (trifluoromethyl)phenyl]-5-chloro-2-hydroxybenzamide], the values for the Kd on rat serum albumin and at human serum albumin were 5.5 µM and 3.47 µM, respectively. Further, in the series on human AQP4, the “maximal inhibition of human AQP4” value is given as 20%. Besides, the figures for the fraction unbound in series [3], in series [4] and in [6] (plasma) were less than 0.01, less than 0.01 and 0.005, respectively. In addition, the chromatographic logD in series [5] turned out to be 3.31.
